Assay results as given in publication PMC4048319, “Design and Synthesis of High Affinity Inhibitors of Plasmodium falciparum and Plasmodium vivax N-Myristoyltransferases Directed by Ligand Efficiency Dependent Lipophilicity (LELP)” (Journal of Medicinal Chemistry, 2014).

Key:
PfNMT [1] = molecular target: T1, PfNMT (Plasmodium falciparum, UniProt Q9U419); experiment: NMT enzyme inhibition, CPM fluorescence assay (PfNMT); assay type: biochemical; conditions: for Ki: Ki calculated from IC50 by Cheng-Prusoff, mean of two or more determinations, read-out: PfNMT Ki
T1 sequence (Q9U419 1-410): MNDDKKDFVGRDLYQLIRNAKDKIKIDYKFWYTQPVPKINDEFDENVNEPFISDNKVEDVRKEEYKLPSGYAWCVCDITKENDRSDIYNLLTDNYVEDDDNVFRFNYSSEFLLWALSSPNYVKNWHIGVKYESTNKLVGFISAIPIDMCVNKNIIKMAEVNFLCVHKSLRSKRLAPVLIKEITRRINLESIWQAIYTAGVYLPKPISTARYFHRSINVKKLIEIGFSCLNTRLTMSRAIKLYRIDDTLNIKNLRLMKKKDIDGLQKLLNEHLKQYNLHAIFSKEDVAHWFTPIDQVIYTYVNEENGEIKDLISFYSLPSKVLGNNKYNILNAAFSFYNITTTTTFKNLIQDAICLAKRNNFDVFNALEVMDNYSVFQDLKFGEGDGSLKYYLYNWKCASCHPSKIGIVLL
Method: (§1) All IC50 determinations were carried out using a 7-diethylamino-3-(4′-maleimidylphenyl)-4-methylcoumarin (CPM) fluorescence assay, as described previously for HsNMT1,[45] PvNMT,[46] and PfNMT.[21]
(§2) IC50 values are the mean value of two or more determinations, and standard deviation is within 20% of the IC50 unless otherwise specified. Data were elaborated using Microsoft Office Excel 2010, and IC50 values were determined using GraFit 7.0 (Erithacus Software Ltd., U.K.) by nonlinear regression fitting, which were then quoted as Ki as defined below.
(§3) The Michaelis constant (Km) was 3.64 μM and the substrate concentration was 4.00 μM, resulting in a Ki of 0.008 μM. Km values were calculated as described previously.[45]

HepG2 cells = experiment: in vitro; assay type: cell-based
PfNMT [2] = molecular target: T1, PfNMT; experiment: LELP (cLogP/LE, PfNMT LE)
HsNMT1 = molecular target: T2, HsNMT1 (Homo sapiens, UniProt P30419); experiment: NMT enzyme inhibition, CPM fluorescence assay (HsNMT1); assay type: biochemical; conditions: ratio of Ki
T2 sequence (P30419 1-496): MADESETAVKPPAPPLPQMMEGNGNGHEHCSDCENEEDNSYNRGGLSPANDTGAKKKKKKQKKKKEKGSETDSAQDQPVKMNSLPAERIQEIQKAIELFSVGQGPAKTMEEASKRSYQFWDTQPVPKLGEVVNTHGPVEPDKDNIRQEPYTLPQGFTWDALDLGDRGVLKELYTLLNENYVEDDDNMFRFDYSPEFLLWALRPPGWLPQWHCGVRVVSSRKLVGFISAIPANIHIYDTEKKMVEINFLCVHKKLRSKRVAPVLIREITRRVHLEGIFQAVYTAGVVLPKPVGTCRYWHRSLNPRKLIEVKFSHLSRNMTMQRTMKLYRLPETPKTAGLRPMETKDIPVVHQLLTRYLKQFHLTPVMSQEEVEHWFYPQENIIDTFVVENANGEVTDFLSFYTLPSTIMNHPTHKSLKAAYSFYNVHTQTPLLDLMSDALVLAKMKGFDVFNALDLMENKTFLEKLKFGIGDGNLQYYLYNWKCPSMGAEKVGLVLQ
Method: as §1, §2, §3

P. falciparum Dd2 = experiment: Plasmodium falciparum [3H]hypoxanthine incorporation assay (Dd2); assay type: cell-based; conditions: drug-resistant vs drug-sensitive line
Method: This assay was performed by Dr. Sergio Wittlin and Dr. Christian Scheurer at the Swiss Tropical and Public Health Institute and is a modified version of the original hypoxanthine assay published by Desjardins et al.:[47]
Serial drug dilutions were prepared with a multichannel pipet, transferring 100 μL in a 2-fold serial dilution. Wells of rows A served as controls without drug. An amount of 100 μL of infected blood (parasitemia of 0.3%, 2.5% hematocrit) was added to all wells with a multipipette. The control wells (A9–A12) received uninfected blood of 2.5% hematocrit. The plates were incubated in an incubation chamber at 37 °C in an atmosphere containing 93% N2, 4% CO2, 3% O2. After 48 h, an amount of 50 μL of [^3H]hypoxanthine (=0.5 μCi) solution was added to each well of the plate. The plates were incubated for another 24 h. The plates were then harvested with a Betaplate cell harvester (Wallac, Zurich, Switzerland). The dried filters were inserted into a plastic foil with 10 mL of scintillation fluid and counted in a Betaplate liquid scintillation counter (Wallac, Zurich, Switzerland). The results were recorded as counts per minute (cpm) per well at each drug concentration.
Data were analyzed using a graphic program (e.g., Excel) and expressed as percentage of the untreated controls. The 50% inhibitory concentration (IC50) value was evaluated by logit regression analysis.

in vitro = assay type: cell-based; conditions: human
PbNMT = PbNMT (Plasmodium berghei, UniProt A0A509ARF4); experiment: PbNMT enzyme affinity; assay type: biochemical
Method: In addition, 34c was tested against a Plasmodium berghei (Pb) liver stage model to determine whether NMT is likely to be a viable drug target for clearance of liver stage parasites. […] This provides evidence that NMT inhibition is also a promising mechanism for targeting liver stage parasites and may therefore be an effective pathway for the disruption of multiple parasite life stages.

[3] = parameters: method as in PMID 24451586; conditions: previously reported; cited from earlier work
[4] = cLogP determined with ChemAxon
rodent malaria model = system: rodent malaria model; parameters: method as in PMID 24451586; conditions: previously shown; cited from earlier work
PvNMT = molecular target: T3, PvNMT (Plasmodium vivax, UniProt A5K1A2); experiment: NMT enzyme inhibition, CPM fluorescence assay (PvNMT); assay type: biochemical; conditions: relative to 34c
T3 sequence (A5K1A2 1-410): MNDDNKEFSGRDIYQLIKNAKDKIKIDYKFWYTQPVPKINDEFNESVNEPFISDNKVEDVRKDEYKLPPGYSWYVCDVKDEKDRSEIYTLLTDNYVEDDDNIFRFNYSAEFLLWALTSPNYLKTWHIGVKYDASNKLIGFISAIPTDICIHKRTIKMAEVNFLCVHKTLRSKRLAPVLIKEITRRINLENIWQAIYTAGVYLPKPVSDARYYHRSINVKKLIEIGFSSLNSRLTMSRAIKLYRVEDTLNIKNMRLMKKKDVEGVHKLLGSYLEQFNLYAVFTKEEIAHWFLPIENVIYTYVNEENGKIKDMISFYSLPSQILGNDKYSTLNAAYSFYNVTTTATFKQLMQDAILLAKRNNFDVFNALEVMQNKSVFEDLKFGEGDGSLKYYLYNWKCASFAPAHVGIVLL
Method: as §1, §2, §3

Aqueous solubility = assay type: physicochemical; conditions: data not shown

Chain of PbNMT (A0A509ARF4 entry or part of it): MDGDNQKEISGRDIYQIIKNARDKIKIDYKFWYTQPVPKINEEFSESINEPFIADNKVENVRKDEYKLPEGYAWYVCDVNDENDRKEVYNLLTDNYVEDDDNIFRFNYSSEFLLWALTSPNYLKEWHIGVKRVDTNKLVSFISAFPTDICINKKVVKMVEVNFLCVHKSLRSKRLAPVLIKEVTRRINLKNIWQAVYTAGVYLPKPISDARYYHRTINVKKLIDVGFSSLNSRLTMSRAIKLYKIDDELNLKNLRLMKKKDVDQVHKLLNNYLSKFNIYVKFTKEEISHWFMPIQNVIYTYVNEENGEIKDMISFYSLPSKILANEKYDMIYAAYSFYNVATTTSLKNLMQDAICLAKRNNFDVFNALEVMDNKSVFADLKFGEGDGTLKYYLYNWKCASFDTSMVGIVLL

SMILES | LELP (PfNMT [2]) | other results
O=C(NCCOc1ccccc1)c1sc2ccccc2c1OC1CCNCC1 [6c] | – | Ki (PfNMT [1]): > 10 µM
O=C(NCCc1ccccc1)c1sc2ccccc2c1OC1CCNCC1 [6a] | – | Ki (PfNMT [1]): > 10 µM
O=C1C(O)=C([C@H]2CC[C@H](c3ccc(Cl)cc3)CC2)C(=O)c2ccccc21 [compound 37, atovaquone, reference compound] | – | HepG2 LD50 (HepG2 cells; human, 72 h): >10 000 nM
COc1cccc(CCOC(=O)c2sc3ccccc3c2OC2CCNCC2)c1 [4b, 3-Methoxyphenethyl 3-(Piperidin-4-yloxy)benzo[b]thiophene-2-carboxylate] | 13.2 | improvement in enzyme affinity (PfNMT) relative to 1 (PfNMT [1]): 6 fold
Cc1noc(C)c1Cc1nnc(-c2sc3ccccc3c2OC2CCNCC2)o1 [34b] | 6.1 | selectivity between PfNMT and HsNMT (HsNMT1): 8- to 9 fold
COc1cccc(Cc2noc(-c3sc4ccccc4c3OC3CCNCC3)n2)c1 [9c] | 12.5 | –
FC(F)(c1ccccc1)c1nnc(-c2sc3ccccc3c2OC2CCNCC2)o1 [23d] | 13.8 | –
COc1cccc(Cc2nnc(-c3sc4ccccc4c3OC3CCNCC3)o2)c1 [20b] | 9.2 | –
O=C(OCCOc1ccccc1)c1sc2ccccc2c1OC1CCNCC1 [4e] | 14.1 | –
c1ccc(Cc2nc(-c3sc4ccccc4c3OC3CCNCC3)no2)cc1 [14a] | 12.8 | –
c1ccc(Cc2n[nH]c(-c3sc4ccccc4c3OC3CCNCC3)n2)cc1 [compound 18] | 9.5 | –
COc1cc(CCOC(=O)c2sc3ccccc3c2OC2CCNCC2)cc(OC)c1 [4c] | 12.4 | –
OC(c1ccccc1)c1nnc(-c2sc3ccccc3c2OC2CCNCC2)o1 (stereo not drawn) [23g] | 7.9 | –
Clc1cccc(Cc2noc(-c3sc4ccccc4c3OC3CCNCC3)n2)c1 [9d] | 15.3 | –
Cc1nn(C)c(C)c1CCc1nnc(-c2sc3ccccc3c2OC2CCNCC2)o1 [35c] | 8.2 | –
c1ccc(Cc2nnc(-c3sc4ccccc4c3OC3CCNCC3)o2)cc1 [20a] | 9.5 | –
Cc1nn(C)c(C)c1Cc1nnc(-c2sc3ccccc3c2OC2CCNCC2)o1 [34c, 2-(3-(Piperidin-4-yloxy)benzo[b]thiophen-2-yl)-5-((1,3,5-trimethyl-1H-pyrazol-4-yl)methyl)-1,3,4-oxadiazole] | 5.5 | improvement in enzyme affinity (PfNMT) relative to 1 (PfNMT [1]): 100 fold; loss of potency between NF54 and Dd2 (P. falciparum Dd2): less than 4 fold; selectivity between PfNMT and HsNMT (HsNMT1): 8- to 9 fold; EC50 at 72 h (in vitro): 12.3 µM; HepG2 LD50 (HepG2 cells; human, 72 h): 12 300 nM; HepG2 LD50 (approximate) (HepG2 cells; human, 72 h): ~10 µM; selectivity between parasitic and HepG2 cell lines (HepG2 cells; up to): ~40 fold; Ki (PbNMT): 0.014 µM; aqueous solubility [3]: > 8 mM; reduction in lipophilicity relative to 1 [4]: 100 fold; parasitemia in vivo (rodent malaria model): reduce parasitemia in vivo

SMILES | LELP (PfNMT [2]) | other results
c1ccc(Cc2noc(-c3sc4ccccc4c3OC3CCNCC3)n2)cc1 [9a, 3-Benzyl-5-(3-(piperidin-4-yloxy)benzo[b]thiophen-2-yl)-1,2,4-oxadiazole] | 12.4 | –
O=C(OCCCc1ccccc1)c1sc2ccccc2c1OC1CCNCC1 [4d] | 18.6 | –
c1ccc(C(c2ccccc2)c2nnc(-c3sc4ccccc4c3OC3CCNCC3)o2)cc1 [23e] | 19.4 | –
CC(C)(c1ccccc1)c1nnc(-c2sc3ccccc3c2OC2CCNCC2)o1 [23b] | 14.1 | –
Cc1n[nH]c(C)c1Cc1nnc(-c2sc3ccccc3c2OC2CCNCC2)o1 [34a] | 5.6 | lower binding affinity to PvNMT than 34c (PvNMT): ~40 fold
COc1cc(Cc2noc(-c3sc4ccccc4c3OC3CCNCC3)n2)cc(OC)c1 [9e] | 11.8 | solubility (Aqueous solubility): very low
COc1cc(Cc2nc(-c3sc4ccccc4c3OC3CCNCC3)no2)cc(OC)c1 [14c] | 11.8 | –
c1ccc(CCc2noc(-c3sc4ccccc4c3OC3CCNCC3)n2)cc1 [9b, 3-Phenethyl-5-(3-(piperidin-4-yloxy)benzo[b]thiophen-2-yl)-1,2,4-oxadiazole] | 15.2 | –
O=C(OCCc1ccccc1)c1sc2ccccc2c1OC1CCNCC1 [4a] | 14.3 | –
COC(c1ccccc1)c1nnc(-c2sc3ccccc3c2OC2CCNCC2)o1 (stereo not drawn) [23f] | 10.5 | –
Cc1n[nH]c(C)c1CCc1nnc(-c2sc3ccccc3c2OC2CCNCC2)o1 [35a] | 7.8 | –
COc1cccc(Cc2nc(-c3sc4ccccc4c3OC3CCNCC3)no2)c1 [14b, 5-(3-Methoxybenzyl)-3-(3-(piperidin-4-yloxy)benzo[b]thiophen-2-yl)-1,2,4-oxadiazole] | 12.4 | –
c1ccc(C2(c3nnc(-c4sc5ccccc5c4OC4CCNCC4)o3)CC2)cc1 [23c] | 12.2 | –
Cc1noc(C)c1CCc1nnc(-c2sc3ccccc3c2OC2CCNCC2)o1 [35b] | 7.9 | –
O=C(NCCCc1ccccc1)c1sc2ccccc2c1OC1CCNCC1 [6b] | – | Ki (PfNMT [1]): > 10 µM
CC(c1ccccc1)c1nnc(-c2sc3ccccc3c2OC2CCNCC2)o1 (stereo not drawn) [23a, 2-(1-Phenylethyl)-5-(3-(piperidin-4-yloxy)benzo[b]thiophen-2-yl)-1,3,4-oxadiazole] | 12.5 | –
